Experiments:
Type in all cases: functional
HCC 2998 = assay: Cytotoxicity against human HCC2998 cells
MCF7 = assay: Cytotoxicity against human MCF7 cells
K562 = assay: Cytotoxicity against human K562 cells
TK-10 = assay: Cytotoxicity against human TK10 cells
KM12 = assay: Cytotoxicity against human KM12 cells
UACC-257 = assay: Cytotoxicity against human UACC257 cells
NCI/ADR-RES = assay: Cytotoxicity against human NCI/ADR-RES cells
IGROV-1 = assay: Cytotoxicity against human IGROV1 cells
UO-31 = assay: Cytotoxicity against human UO31 cells
U-251 = assay: Cytotoxicity against human U251cells
RPMI-8226 = assay: Cytotoxicity against human RPMI8226 cells
MDA-MB-435 = assay: Cytotoxicity against human MDA-MB-435 cells
HT-29 = assay: Cytotoxicity against human HT29 cells
Malme-3M = assay: Cytotoxicity against human MALME-3M cells
HCT-15 = assay: Cytotoxicity against human HCT15 cells
BT-549 = assay: Cytotoxicity against human BT549 cells
786-0 = assay: Cytotoxicity against human 786-0 cells
SN12C = assay: Cytotoxicity against human SN12C cells
NCI-H226 = assay: Cytotoxicity against human NCI-H226 cells
HOP-92 = assay: Cytotoxicity against human HOP92 cells
SR = assay: Cytotoxicity against human SR cells
HCT-116 = assay: Cytotoxicity against human HCT116 cells
RXF 393 = assay: Cytotoxicity against human RXF393 cells
SNB-75 = assay: Cytotoxicity against human SNB75 cells
COLO 205 = assay: Cytotoxicity against human COLO205 cells
OVCAR-5 = assay: Cytotoxicity against human OVCAR5 cells
NCI-H322M = assay: Cytotoxicity against human NCI-H322M cells
OVCAR-8 = assay: Cytotoxicity against human OVCAR8 cells
SF-295 = assay: Cytotoxicity against human SF295 cells
M14 = assay: Cytotoxicity against human M14 cells
A549 = assay: Cytotoxicity against human A549 cells
SK-MEL-28 = assay: Cytotoxicity against human SK-MEL-28 cells
MOLT-4 = assay: Cytotoxicity against human MOLT4 cells
SF-539 = assay: Cytotoxicity against human SF539 cells
T47D = assay: Cytotoxicity against human T47D cells
OVCAR-3 = assay: Cytotoxicity against human OVCAR-3 cells
UACC-62 = assay: Cytotoxicity against human UACC62 cells
PC-3 = assay: Cytotoxicity against human PC3 cells
NCI-H23 = assay: Cytotoxicity against human NCI-H23 cells
SF-268 = assay: Cytotoxicity against human SF268 cells
LOX IMVI = assay: Cytotoxicity against human LOX IMVI cells
ACHN = assay: Cytotoxicity against human ACHN cells
SK-MEL-2 = assay: Cytotoxicity against human SK-MEL-2 cells
NCI-H460 = assay: Cytotoxicity against human NCI-H460 cells
OVCAR-4 = assay: Cytotoxicity against human OVCAR4 cells
SNB-19 = assay: Cytotoxicity against human SNB19 cells; details: read-out: Log LC50 (the source's name) (converted)
[1] = read-out: Log LC50 (the source's name) (converted)

SMILES: CC1OC(=O)[C@H]2[C@H]1[C@@H](O)C[C@H]1[C@]3(C)CC[C@H]4C(C)(C)CCC[C@]4(C)[C@H]3C[C@@H](O)[C@]21C (stereo partly specified)
- GI50 (HCC 2998): 15.5 µM
- CC50 (HCC 2998; [1]): 56.2 µM
- TGI (HCC 2998; read-out: Log TGI (converted)): 29.5 µM
- GI50 (MCF7): 34.7 µM
- LC50 (MCF7): > 100 µM
- TGI (MCF7; read-out: Log TGI (converted)): > 100 µM
- GI50 (K562): 29.5 µM
- CC50 (K562; [1]): > 100 µM
- TGI (K562; read-out: Log TGI (converted)): 55 µM
- GI50 (TK-10): 30.2 µM
- LC50 (TK-10): > 100 µM
- TGI (TK-10; read-out: Log TGI (converted)): 79.4 µM
- GI50 (KM12): 25.1 µM
- CC50 (KM12; [1]): > 100 µM
- TGI (KM12; read-out: Log TGI (converted)): 69.2 µM
- GI50 (UACC-257): 28.2 µM
- CC50 (UACC-257; [1]): > 100 µM
- TGI (UACC-257; read-out: Log TGI (converted)): 83.2 µM
- GI50 (NCI/ADR-RES): 18.6 µM
- LC50 (NCI/ADR-RES): 83.2 µM
- TGI (NCI/ADR-RES; read-out: Log TGI (converted)): 39.8 µM
- GI50 (IGROV-1): 30.9 µM
- CC50 (IGROV-1; [1]): > 100 µM
- TGI (IGROV-1; read-out: Log TGI (converted)): 81.3 µM
- GI50 (UO-31): 20.4 µM
- LC50 (UO-31): 75.9 µM
- TGI (UO-31; read-out: Log TGI (converted)): 39.8 µM
- GI50 (U-251): 17 µM
- CC50 (U-251; [1]): 61.7 µM
- TGI (U-251; read-out: Log TGI (converted)): 32.4 µM
- GI50 (RPMI-8226): 16.2 µM
- CC50 (RPMI-8226; [1]): > 100 µM
- TGI (RPMI-8226; read-out: Log TGI (converted)): 51.3 µM
- GI50 (MDA-MB-435): 19.1 µM
- LC50 (MDA-MB-435): > 100 µM
- TGI (MDA-MB-435; read-out: Log TGI (converted)): 51.3 µM
- GI50 (HT-29): 17.4 µM
- CC50 (HT-29; [1]): 83.2 µM
- TGI (HT-29; read-out: Log TGI (converted)): 38 µM
- GI50 (Malme-3M): 26.9 µM
- CC50 (Malme-3M; [1]): 91.2 µM
- TGI (Malme-3M; read-out: Log TGI (converted)): 50.1 µM
- GI50 (HCT-15): 16.2 µM
- CC50 (HCT-15; [1]): 60.3 µM
- TGI (HCT-15; read-out: Log TGI (converted)): 31.6 µM
- GI50 (BT-549): 17 µM
- LC50 (BT-549): 64.6 µM
- TGI (BT-549; read-out: Log TGI (converted)): 33.1 µM
- GI50 (786-0): 15.8 µM
- CC50 (786-0; [1]): 56.2 µM
- TGI (786-0; read-out: Log TGI (converted)): 30.2 µM
- GI50 (SN12C): 17.4 µM
- LC50 (SN12C): > 100 µM
- TGI (SN12C; read-out: Log TGI (converted)): 46.8 µM
- GI50 (NCI-H226): 20 µM
- CC50 (NCI-H226; [1]): 87.1 µM
- TGI (NCI-H226; read-out: Log TGI (converted)): 41.7 µM
- GI50 (HOP-92): 17 µM
- CC50 (HOP-92; [1]): 93.3 µM
- TGI (HOP-92; read-out: Log TGI (converted)): 39.8 µM
- GI50 (SR): 8.51 µM
- CC50 (SR; [1]): > 100 µM
- TGI (SR; read-out: Log TGI (converted)): 35.5 µM
- GI50 (HCT-116): 11.2 µM
- CC50 (HCT-116; [1]): 47.9 µM
- TGI (HCT-116; read-out: Log TGI (converted)): 23.4 µM
- GI50 (RXF 393): 14.8 µM
- LC50 (RXF 393): 58.9 µM
- TGI (RXF 393; read-out: Log TGI (converted)): 29.5 µM
- GI50 (SNB-75): 20 µM
- CC50 (SNB-75; [1]): > 100 µM
- TGI (SNB-75; read-out: Log TGI (converted)): 47.9 µM
- GI50 (COLO 205): 15.8 µM
- CC50 (COLO 205; [1]): 66.1 µM
- TGI (COLO 205; read-out: Log TGI (converted)): 32.4 µM
- GI50 (OVCAR-5): 20.9 µM
- CC50 (OVCAR-5; [1]): 75.9 µM
- TGI (OVCAR-5; read-out: Log TGI (converted)): 39.8 µM
- GI50 (NCI-H322M): 31.6 µM
- CC50 (NCI-H322M; [1]): > 100 µM
- TGI (NCI-H322M; read-out: Log TGI (converted)): 93.3 µM
- GI50 (OVCAR-8): 25.1 µM
- CC50 (OVCAR-8; [1]): > 100 µM
- TGI (OVCAR-8; read-out: Log TGI (converted)): 63.1 µM
- GI50 (SF-295): 19.5 µM
- CC50 (SF-295; [1]): > 100 µM
- TGI (SF-295; read-out: Log TGI (converted)): 50.1 µM
- GI50 (M14): 19.1 µM
- CC50 (M14; [1]): 69.2 µM
- TGI (M14; read-out: Log TGI (converted)): 36.3 µM
- GI50 (A549): 15.8 µM
- CC50 (A549; [1]): 89.1 µM
- TGI (A549; read-out: Log TGI (converted)): 37.2 µM
- GI50 (SK-MEL-28): 20 µM
- CC50 (SK-MEL-28; [1]): 66.1 µM
- TGI (SK-MEL-28; read-out: Log TGI (converted)): 36.3 µM
- GI50 (MOLT-4): 4.79 µM
- CC50 (MOLT-4; [1]): > 100 µM
- TGI (MOLT-4; read-out: Log TGI (converted)): 20.9 µM
- GI50 (SF-539): 19.1 µM
- CC50 (SF-539; [1]): 67.6 µM
- TGI (SF-539; read-out: Log TGI (converted)): 36.3 µM
- GI50 (T47D): 24.5 µM
- LC50 (T47D): > 100 µM
- TGI (T47D; read-out: Log TGI (converted)): 63.1 µM
- GI50 (OVCAR-3): 11.5 µM
- CC50 (OVCAR-3; [1]): 60.3 µM
- TGI (OVCAR-3; read-out: Log TGI (converted)): 26.3 µM
- GI50 (UACC-62): 19.5 µM
- CC50 (UACC-62; [1]): 97.7 µM
- TGI (UACC-62; read-out: Log TGI (converted)): 43.7 µM
- GI50 (PC-3): 17 µM
- LC50 (PC-3): > 100 µM
- TGI (PC-3; read-out: Log TGI (converted)): 55 µM
- GI50 (NCI-H23): 20.4 µM
- CC50 (NCI-H23; [1]): 67.6 µM
- TGI (NCI-H23; read-out: Log TGI (converted)): 37.2 µM
- GI50 (SF-268): 22.4 µM
- CC50 (SF-268; [1]): > 100 µM
- TGI (SF-268; read-out: Log TGI (converted)): 49 µM
- GI50 (LOX IMVI): 17.4 µM
- CC50 (LOX IMVI; [1]): 56.2 µM
- TGI (LOX IMVI; read-out: Log TGI (converted)): 30.9 µM
- GI50 (ACHN): 18.2 µM
- LC50 (ACHN): 56.2 µM
- TGI (ACHN; read-out: Log TGI (converted)): 31.6 µM
- GI50 (SK-MEL-2): 25.1 µM
- CC50 (SK-MEL-2; [1]): > 100 µM
- TGI (SK-MEL-2; read-out: Log TGI (converted)): 51.3 µM
- GI50 (NCI-H460): 20.9 µM
- CC50 (NCI-H460; [1]): 89.1 µM
- TGI (NCI-H460; read-out: Log TGI (converted)): 42.7 µM
- GI50 (OVCAR-4): 20.9 µM
- CC50 (OVCAR-4; [1]): > 100 µM
- TGI (OVCAR-4; read-out: Log TGI (converted)): 60.3 µM
- CC50 (SNB-19): 17 µM
